The values that follow come from US12281122B1, “PI3K inhibitors” (Cogent Biosciences, Inc., priority 2023, dated 2025).

Experiment [1] has as its system SKBR3 (PI3Kα-Wild Type) cell line. Description: HTRF phospho-AKT(S473) cell assay in SKBR3 cells. It counts as cell-based, human. As to the method: (§1) Compounds in the present disclosure were tested in a cell based HTRF phospho-AKT(S473) (CisBio/Revvity) assay in human breast cancer cell lines as a measurement of PIK3CA activity through measuring AKT, a downstream effector. The activity of mutant PI3Kα-H1047R and PI3Kα-Wild Type was measured in the T47D (PI3Kα-H1047R) and SKBR3 (PI3Kα-Wild Type) cell lines, respectively. T47D cells were plated at 20,000 cells per well in 50 μL in RPMI medium supplemented with 10% FBS and 0.2 units/mL insulin, in 384 well plates. SKBR3 cells were plated at 25,000 cells per well in 50 μL in McCoy's 5A medium supplemented with 10% FBS, in 384 well plates. Cells were plated using a Combi Multidrop reagent dispenser (ThermoFisher), and placed in 5% CO2, 37° C. incubator overnight to adhere.
(§2) The next day, cells were treated with either compounds or vehicle (DMSO) in a 12-fold dose response curve of 1:3 dilutions, with 5 μM and 10 μM as the top concentrations for the T47D and SKBR3 cell lines, respectively. Compound treatment was facilitated via the D300e digital dispenser (Tecan), with a maximum DMSO concentration of 0.5%. Following compound addition, cell plates were incubated for 2 hours in 5% CO2, 37° C. incubator. The SKBR3 cells were stimulated and treated with 70 ng/ml PDGF-BB ligand (ThermoFisher) for the remaining 15 minutes of the incubation. Following compound incubation, compound and media was aspirated from the cells and 25 μL of supplemented lysis buffer was added per well, and incubated for 45 minutes at room temperature, shaking at 600 rpm. Next, 16 μL of cell lysate was added to a 384 well low volume ProxyPlate (Perkin Elmer/Revvity) mixed with 4 μL of HTRF antibodies (1:1 Eu Cryptate+d2 Cryptate). HTRF supplemented lysis buffer and antibody reagents were used from the phosphor-AKT(S473) HTRF assay kit (CisBio/Revvity), following manufacturers protocol recommendations. Plates were sealed and incubated at 4° C. overnight.
(§3) The following day, plates were centrifuged for 1 minute at 1000 rpm, and read on a PHERAstar plate reader. IC50 values were calculated using Spotfire software.

In experiment [2] the test system is T47D (PI3Kα-H1047R) cell line. Kind of experiment: HTRF phospho-AKT(S473) cell assay in T47D cells. It counts as cell-based, human. As to the method: as §1, §2, §3
[3] abbreviates: Homo sapiens, SK-BR-3; HTRF phospho-AKT(S473), SKBR3 (PI3Kα-Wild Type) cells, 2 hours compound incubation, PDGF-BB stimulated.
Where [4] appears, read: Homo sapiens; HTRF phospho-AKT(S473), T47D (PI3Kα-H1047R) cells, 2 hours compound incubation.
Where [5] appears, read: Homo sapiens, SK-BR-3; SKBR3 (PI3Kα-Wild Type) cells, HTRF phospho-AKT(S473), 2 hours compound incubation, PDGF-BB stimulated.
Where [6] appears, read: Homo sapiens; T47D (PI3Kα-H1047R) cells, HTRF phospho-AKT(S473), 2 hours compound incubation.

Molecules are shown by their SMILES. pIC50: −log10 of the molar value.

With `Cc1cc([C@@H](C)Nc2ccc(Cl)nc2C(=O)NS(C)(=O)=O)c2nc(N3CCC[C@@H](c4nccc(C)n4)C3)n(C)c(=O)c2c1` (mixture of isomers) [Compound 633, 6-chloro-3-(((R)-1-(3,6-dimethyl-2-((RS)-3-(4-methylpyrimidin-2-yl)piperidin-1-yl)-4-oxo-3,4-dihydroquinazolin-8-yl)ethyl)amino)-N-(methylsulfonyl) picolinamide], the negative-log IC50 (pIC50) in experiment [1] (setting [3]) is no more than 5.30; in experiment [2] (setting [4]), 6.30 to 6.60.
The like results for `Cc1cc([C@@H](C)Nc2ccc(Cl)nc2C(=O)NS(C)(=O)=O)c2nc(N3C[C@@H]4C(c5ncc(Cl)cn5)[C@@H]4C3)n(C)c(=O)c2c1` (stereo partly drawn) [Compound 535, 6-chloro-3-(((1R)-1-(2-((1R,5S)-6-(5-chloropyrimidin-2-yl)-3-azabicyclo[3.1.0]hexan-3-yl)-3,6-dimethyl-4-oxo-3,4-dihydroquinazolin-8-yl)ethyl)amino)-N-(methylsulfonyl) picolinamide] were, in that order, no more than 5.30 and 6.30 to 6.60.
For `Cc1cc([C@@H](C)Nc2ccc(Cl)nc2C(=O)NS(C)(=O)=O)c2nc(N3CC[C@@H](c4ccc(C)nc4)C3)n(C)c(=O)c2c1` (relative stereo) [Compound 659, 6-chloro-3-(((R)-1-(3,6-dimethyl-2-((R*)-3-(6-methylpyridin-3-yl)pyrrolidin-1-yl)-4-oxo-3,4-dihydroquinazolin-8-yl)ethyl)amino)-N-(methylsulfonyl) picolinamide], in that order: 5.30 to 6.00 and greater than 6.60.
For `Cc1cc([C@@H](C)Nc2ccc(Cl)nc2C(=O)NS(C)(=O)=O)c2nc(N3CC[C@H](N(C)c4ncc(Cl)cn4)C3)n(C)c(=O)c2c1` [Compound 740, 6-chloro-3-(((R)-1-(2-((S)-3-((5-chloropyrimidin-2-yl)(methyl)amino)pyrrolidin-1-yl)-3,6-dimethyl-4-oxo-3,4-dihydroquinazolin-8-yl)ethyl)amino)-N-(methylsulfonyl) picolinamide], in that order: no more than 5.30 and 6.30 to 6.60.
For the compound `Cc1cc([C@@H](C)Nc2ccc(Cl)nc2C(=O)NS(C)(=O)=O)c2nc(N3C[C@@H]4[C@H](C3)[C@H]4c3cnc(C4CC4)nc3)n(C)c(=O)c2c1` [Compound 485, 6-chloro-3-(((R)-1-(2-((1R,5S,6S)-6-(2-cyclopropylpyrimidin-5-yl)-3-azabicyclo[3.1.0]hexan-3-yl)-3,6-dimethyl-4-oxo-3,4-dihydroquinazolin-8-yl)ethyl)amino)-N-(methylsulfonyl) picolinamide], the figures for the pIC50 in experiment [1] (setting [3]) and in experiment [2] (setting [4]) were 5.30 to 6.00 and 6.30 to 6.60, respectively.
For `Cc1cc([C@@H](C)Nc2ccc(Cl)nc2C(=O)NS(C)(=O)=O)c2nc(-c3ccn(-c4ccn(C)n4)c(=O)c3)n(C)c(=O)c2c1` [Compound 807, (R)-6-chloro-3-((1-(3,6-dimethyl-2-(1-(1-methyl-1H-pyrazol-3-yl)-2-oxo-1,2-dihydropyridin-4-yl)-4-oxo-3,4-dihydroquinazolin-8-yl)ethyl)amino)-N-(methylsulfonyl) picolinamide], in that order: no more than 5.30 and 6.30 to 6.60.
The like results for `COc1cc([C@H]2[C@@H]3CN(c4nc5c([C@@H](C)Nc6ccc(Cl)nc6C(=O)NS(C)(=O)=O)cc(C)cc5c(=O)n4C)C[C@@H]32)ccn1` [Compound 474, 6-chloro-3-(((R)-1-(2-((1R,5S,6S)-6-(2-methoxypyridin-4-yl)-3-azabicyclo[3.1.0]hexan-3-yl)-3,6-dimethyl-4-oxo-3,4-dihydroquinazolin-8-yl)ethyl)amino)-N-(methylsulfonyl) picolinamide] were, in that order, no more than 5.30 and 6.30 to 6.60.
The like results for `Cc1cc([C@@H](C)Nc2ccc(Cl)nc2C(=O)NS(C)(=O)=O)c2nc(N3CCC(c4ncc(C5CC5)cn4)CC3)n(C)c(=O)c2c1` [Compound 509, (R)-6-chloro-3-((1-(2-(4-(5-cyclopropylpyrimidin-2-yl)piperidin-1-yl)-3,6-dimethyl-4-oxo-3,4-dihydroquinazolin-8-yl)ethyl)amino)-N-(methylsulfonyl) picolinamide] were, in that order, no more than 5.30 and 6.30 to 6.60.
For `COc1ccc(N2C[C@@H]3C[C@H]2CN3c2nc3c([C@@H](C)Nc4ccc(Cl)nc4C(=O)NS(C)(=O)=O)cc(C)cc3c(=O)n2C)cn1` [Compound 636, 6-chloro-3-(((R)-1-(2-((1S,4S)-5-(6-methoxypyridin-3-yl)-2,5-diazabicyclo [2.2.1]heptan-2-yl)-3,6-dimethyl-4-oxo-3,4-dihydroquinazolin-8-yl)ethyl)amino)-N-(methylsulfonyl) picolinamide], the pIC50 in experiment [1] (setting [3]) was no more than 5.30; in experiment [2] (setting [4]) it was 6.30 to 6.60.
For `Cc1cc([C@@H](C)Nc2ccc(Cl)nc2C(=O)NS(C)(=O)=O)c2nc(N3CC[C@@H](Oc4cnn(C)c4)C3)n(C)c(=O)c2c1` [Compound 320, 6-chloro-3-(((R)-1-(3,6-dimethyl-2-((R)-3-((1-methyl-1H-pyrazol-4-yl)oxy)pyrrolidin-1-yl)-4-oxo-3,4-dihydroquinazolin-8-yl)ethyl)amino)-N-(methylsulfonyl) picolinamide], the pIC50 in experiment [1] (setting [5]) was 5.30 to 6.00; in experiment [2] (setting [6]), greater than 6.60.
As to `COc1cc(N2CCN(c3nc4c([C@@H](C)Nc5ccc(Cl)nc5C(=O)NS(C)(=O)=O)cc(C)cc4c(=O)n3C)CC2)ccn1` [Compound 554, (R)-6-chloro-3-((1-(2-(4-(2-methoxypyridin-4-yl)piperazin-1-yl)-3,6-dimethyl-4-oxo-3,4-dihydroquinazolin-8-yl)ethyl)amino)-N-(methylsulfonyl) picolinamide], the pIC50 in experiment [1] (setting [3]) was 5.30 to 6.00; in experiment [2] (setting [4]), greater than 6.60.
As to `Cc1cc([C@@H](C)Nc2ccc(Cl)nc2C(=O)NS(C)(=O)=O)c2nc(N3C[C@@H]4[C@@H](COc5ccnn5C)[C@@H]4C3)n(C)c(=O)c2c1` [Compound 341, 6-chloro-3-(((R)-1-(3,6-dimethyl-2-((1R,5S,6R)-6-(((1-methyl-1H-pyrazol-5-yl)oxy)methyl)-3-azabicyclo[3.1.0]hexan-3-yl)-4-oxo-3,4-dihydroquinazolin-8-yl)ethyl)amino)-N-(methylsulfonyl) picolinamide], the pIC50 was 5.30 to 6.00 in experiment [1] (setting [5]) and greater than 6.60 in experiment [2] (setting [6]).
As to `Cc1cc([C@@H](C)Nc2ccc(Cl)nc2C(=O)NS(C)(=O)=O)c2nc(N3CCC(C4=NN(C)C(=O)C4(F)F)CC3)n(C)c(=O)c2c1` [Compound 561, (R)-6-chloro-3-((1-(2-(4-(4,4-difluoro-1-methyl-5-oxo-4,5-dihydro-1H-pyrazol-3-yl)piperidin-1-yl)-3,6-dimethyl-4-oxo-3,4-dihydroquinazolin-8-yl)ethyl)amino)-N-(methylsulfonyl) picolinamide], the pIC50 in experiment [1] (setting [3]) was no more than 5.30; in experiment [2] (setting [4]), 6.30 to 6.60.
As to `CCn1ncc(F)c1C1CCN(c2nc3c([C@@H](C)Nc4ccc(Cl)nc4C(=O)NS(C)(=O)=O)cc(C)cc3c(=O)n2C)CC1` [Compound 467, (R)-6-chloro-3-((1-(2-(4-(1-ethyl-4-fluoro-1H-pyrazol-5-yl)piperidin-1-yl)-3,6-dimethyl-4-oxo-3,4-dihydroquinazolin-8-yl)ethyl)amino)-N-(methylsulfonyl) picolinamide], the values for the pIC50 in experiment [1] (setting [3]) and in experiment [2] (setting [4]) were no more than 5.30 and greater than 6.60, respectively.
Consider `Cc1cc([C@@H](C)Nc2ccc(Cl)nc2C(=O)NS(C)(=O)=O)c2nc(N3[C@@H]4CC[C@H]3C[C@@H](c3cnn(C)c3)C4)n(C)c(=O)c2c1` [Compound 297, 6-chloro-3-(((R)-1-(3,6-dimethyl-2-((1R,3R,5S)-3-(1-methyl-1H-pyrazol-4-yl)-8-azabicyclo[3.2.1]octan-8-yl)-4-oxo-3,4-dihydroquinazolin-8-yl)ethyl)amino)-N-(methylsulfonyl) picolinamide], for which the values for the pIC50 in experiment [1] (setting [5]) and in experiment [2] (setting [6]) were no more than 5.30 and 6.30 to 6.60, respectively.
On to `Cc1cc([C@@H](C)Nc2ccc(Cl)nc2C(=O)NS(C)(=O)=O)c2nc(N3CC[C@H](Nc4ncc(F)cn4)C3)n(C)c(=O)c2c1` [Compound 737, 6-chloro-3-(((R)-1-(2-((S)-3-((5-fluoropyrimidin-2-yl)amino)pyrrolidin-1-yl)-3,6-dimethyl-4-oxo-3,4-dihydroquinazolin-8-yl)ethyl)amino)-N-(methylsulfonyl) picolinamide], for which the pIC50 in experiment [1] (setting [3]) is no more than 5.30; in experiment [2] (setting [4]), 6.30 to 6.60.
